Consider 14 molecules from ChEMBL document CHEMBL1125269, “Design of enzyme inhibitors using iterative protein crystallographic analysis” (J Med Chem, 1991).

Experiment [1] has as its system CCRF-CEM. Put plainly: Inhibition of cellular growth against human (CCRF-CEM) leukemias (ATCC) deficient in thymidine kinase.
For experiment [2], the system named is L1210. Briefly: Inhibition of cellular growth against mouse (L1210) deficient in thymidine kinase.
Experiment [3] relates to GC3/MTK-. Briefly: Inhibition of cellular growth against human adenocarcinoma (GC3/M TK-) deficient in thymidine kinase.
In experiment [4] the test system is GC3/MTK-. Briefly: Inhibition of cellular growth against human adenocarcinoma (GC3/M TK-) deficient in thymidine kinase.
Experiment [5] concerns the target Thymidylate synthase (Escherichia coli, UniProt C3SWJ7).
Description: Inhibition of Thymidylate synthase of Escherichia coli (Ki)
Experiment [6] concerns L1210. Put plainly: Inhibition of cellular growth against mouse (L1210) deficient in thymidine kinase.
The subject of experiment [7] is CCRF-CEM. Briefly: Inhibition of cellular growth against human (CCRF-CEM) leukemias (ATCC) deficient in thymidine kinase.
The target in experiment [8] is Thymidylate synthase (Escherichia coli) (UniProt C3SWJ7).
Sequence of Thymidylate synthase (Escherichia coli) (C3SWJ7 1-264): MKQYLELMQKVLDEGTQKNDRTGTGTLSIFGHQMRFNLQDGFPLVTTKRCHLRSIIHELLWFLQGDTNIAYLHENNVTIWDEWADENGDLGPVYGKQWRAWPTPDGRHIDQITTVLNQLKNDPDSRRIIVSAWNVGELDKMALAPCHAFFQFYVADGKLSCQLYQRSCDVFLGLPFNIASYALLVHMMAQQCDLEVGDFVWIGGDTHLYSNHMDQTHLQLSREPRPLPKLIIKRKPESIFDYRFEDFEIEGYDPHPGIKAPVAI
Description: Inhibition of Thymidylate synthase of Escherichia coli (Kii)
Experiment [9] has as its target Thymidylate synthase (Homo sapiens, UniProt P04818).
Description: Inhibition of human Thymidylate synthase (Ki)

Where only a bound is given, the exact number is not on record here.

Sequence of Thymidylate synthase (Escherichia coli, UniProt C3SWJ7) (C3SWJ7 whole entry): as the sequence (C3SWJ7 1-264) above
Sequence of Thymidylate synthase (Homo sapiens, UniProt P04818) (P04818 whole entry): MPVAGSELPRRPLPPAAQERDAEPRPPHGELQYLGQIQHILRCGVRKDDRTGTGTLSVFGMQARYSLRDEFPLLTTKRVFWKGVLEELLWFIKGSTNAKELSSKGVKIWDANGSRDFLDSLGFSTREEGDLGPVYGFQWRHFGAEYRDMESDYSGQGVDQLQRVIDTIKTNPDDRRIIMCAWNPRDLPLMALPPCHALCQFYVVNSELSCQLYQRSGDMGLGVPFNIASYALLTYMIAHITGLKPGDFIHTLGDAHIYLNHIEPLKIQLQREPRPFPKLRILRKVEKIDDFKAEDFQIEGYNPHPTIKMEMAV

For the molecule `Nc1nc2cc3c(cc2[nH]1)N(Cc1ccc(S(=O)(=O)N2CCNCC2)cc1)CCC3`, the results for the IC50 in the experiment with CCRF-CEM [1], with L1210 [2] and with GC3/MTK- [3] were 2200 nM, 2050 nM and above 50000 nM, respectively.
`CCN(Cc1ccc(S(=O)(=O)N2CCNCC2)cc1)c1ccc2c3c(cccc13)C(=O)N2`: the IC50 in the experiment with L1210 [2] was 6000 nM.
With `CN(Cc1ccc(S(=O)(=O)c2ccccc2)cc1)c1ccc2c3c(cccc13)C(=O)N2`, in the experiment with GC3/MTK- [3], the IC50 was above 5000 nM.
Take `C#CCN(Cc1ccc2nc(C)nc(O)c2c1)c1ccc(S(=O)(=O)c2ccccc2)c(C(F)(F)F)c1`: the results for the IC50 in the experiment with GC3/MTK- [4], in the experiment on CCRF-CEM [1] and with L1210 [2] were 7500 nM, 3500 nM and 2000 nM, respectively.
Consider `Nc1nc2cc3c(cc2[nH]1)N(Cc1ccc(S(=O)(=O)c2ccccc2)cc1)CCC3`, for which the IC50 with CCRF-CEM [1] is 3900 nM; in the experiment on L1210 [2], 2000 nM; with GC3/MTK- [3], above 5000 nM. Also, the affinity at Thymidylate synthase [5] corresponds to a Ki of 43 nM.
As for `C#CCN(Cc1ccc2nc(C)nc(O)c2c1)c1ccc(S(=O)(=O)c2ccccc2)cc1`, the IC50 was found to be 1100 nM with GC3/MTK- [4], 1600 nM in the experiment on CCRF-CEM [1] and 1000 nM with L1210 [2].
For the molecule `C#CCN(Cc1ccc2nc(C)nc(O)c2c1)c1ccccc1`, the IC50 in the experiment on GC3/MTK- [4], in the experiment with L1210 [6] and in the experiment with CCRF-CEM [7] was above 10700 nM throughout.
As to `C#CCN(Cc1ccc2nc(C)nc(O)c2c1)c1ccc(S(=O)(=O)n2ccc3ccccc32)cc1`, the results for the IC50 with GC3/MTK- [4], with CCRF-CEM [1] and in the experiment on L1210 [2] were 1500 nM, 1300 nM and 300 nM, respectively.
Consider `O=S(=O)(c1ccc(CN2CCCc3cc4[nH]cnc4cc32)cc1)N1CCNCC1`, for which the IC50 in the experiment with GC3/MTK- [4] was found to be 43000 nM; in the experiment on CCRF-CEM [1] it was 11000 nM; in the experiment on L1210 [2] it was 20000 nM. Also, the Ki at Thymidylate synthase [5] came out at 4900 nM.
With `C#CCN(Cc1ccc2nc(C)nc(O)c2c1)c1cccc(C(F)(F)F)c1`, the 50% inhibitory concentration (IC50) in the experiment with L1210 [6], with CCRF-CEM [7] and with GC3/MTK- [3] was above 4300 nM throughout. On Thymidylate synthase [5], this molecule showed a Ki of 450 nM.
With `CN(Cc1ccc(S(=O)(=O)c2ccccc2)cc1)c1ccc2c3c(cccc13)C(N)=N2`, the concentration for half-maximal inhibition (IC50) in the experiment on GC3/MTK- [4] came to 4600 nM; in the experiment on CCRF-CEM [1], 1600 nM; in the experiment with L1210 [2], 380 nM.
Take `C#CCN(Cc1ccc2nc(C)nc(O)c2c1)c1ccc(C(=O)NC(CCC(=O)O)C(=O)O)cc1` (centres undefined): the IC50 in the experiment with GC3/MTK- [4] came out at 49 nM; in the experiment with CCRF-CEM [1], 43 nM; in the experiment with L1210 [2] it was 59 nM. In experiment [8], the Kii was found to be 0.013 µM. Further, the figures for the Ki on Thymidylate synthase [9] and at Thymidylate synthase [5] were 8.5 nM and 4.8 nM, respectively.
As for `CN(Cc1ccc(S(=O)(=O)N2CCNCC2)cc1)c1ccc2c3c(cccc13)C(=O)N2`, the IC50 was determined as 25000 nM in the experiment with GC3/MTK- [4], 8300 nM in the experiment on CCRF-CEM [1] and 2300 nM with L1210 [2].
Turning to `C#CCN(Cc1ccc2[nH]c(N)nc(=O)c2c1)c1ccc(C(=O)NC(CCC(=O)O)C(=O)O)cc1` (centres undefined), the IC50 with GC3/MTK- [4] was found to be 1400 nM; with CCRF-CEM [1] it was 750 nM; with L1210 [2], 3500 nM.
